Test results as given in US11312758B2, “Peptides with vasodilatory and/or diuretic functions” (National University of Singapore, priority 2016, dated 2022).
“And” between values parts separate entries of the source, which are not always exact repeats. Equal entries are not always repeated. Positions of bridges follow the written chain, without caps; N, C: chain ends. Residues, ends and D or L forms follow the SMILES beside them.

Columns and labels:
[1] = tested on: anesthetized male SD rats; assay: In-vivo activity assay: peptide infusion in anesthetized rats (MAP, HR, PP, urine flow); parameters: species or system rat
Protocol: Male Sprague-Dawley (SD) rats (220-280 g) were obtained from Invivos, Singapore. Animals were acclimatized in the Animal Holding unit, NUS for 3 days before the experiment. The experiments were conducted under the guidance and approval of Institutional Animal Care and Use Committee, NUS (041/12).
The experiments were performed as described in Sridharan et al., [Biochem J 469 (2): 255-66 (2015)]. In brief, animals were anesthetized with sodium pentobarbital (60-70 mg/kg) and catheters were inserted in femoral artery, vein and urinary bladder. The body temperature of the animals was maintained using a thermostatic heat pad at 37° C. Continuous infusions (2 ml/h) of 0.2% BSA saline (with or without peptide) was administered through the femoral vein while a pressure transducer attached to the femoral artery recorded on-line changes in mean arterial pressure (MAP), heart rate (HR) and pulse pressure (PP). Urine was collected and the volume was measured after every 10 min. Experiments encompassed control (2×10 min), experimental (1×10 min) and recovery (4×10 min) periods. All animals were euthanized at the end of the experiment in carbon-di-oxide chambers.

[2] = target: T1, rat NPR-A (Rattus norvegicus, UniProt P18910); assay: Whole cell cGMP assay, 30 min end-point dose-response in CHO-K1 cells transiently expressing NPR-A; assay type: cell-based; details: for fold drop in activity compared to ANP: cGMP response; for NPR-A activation potency, Ratio compared wild type NPs: negative = more potent than wild type
T1 construct: expressed in transfected cells; host or cells: CHO-K1
T1 sequence (P18910 29-1057): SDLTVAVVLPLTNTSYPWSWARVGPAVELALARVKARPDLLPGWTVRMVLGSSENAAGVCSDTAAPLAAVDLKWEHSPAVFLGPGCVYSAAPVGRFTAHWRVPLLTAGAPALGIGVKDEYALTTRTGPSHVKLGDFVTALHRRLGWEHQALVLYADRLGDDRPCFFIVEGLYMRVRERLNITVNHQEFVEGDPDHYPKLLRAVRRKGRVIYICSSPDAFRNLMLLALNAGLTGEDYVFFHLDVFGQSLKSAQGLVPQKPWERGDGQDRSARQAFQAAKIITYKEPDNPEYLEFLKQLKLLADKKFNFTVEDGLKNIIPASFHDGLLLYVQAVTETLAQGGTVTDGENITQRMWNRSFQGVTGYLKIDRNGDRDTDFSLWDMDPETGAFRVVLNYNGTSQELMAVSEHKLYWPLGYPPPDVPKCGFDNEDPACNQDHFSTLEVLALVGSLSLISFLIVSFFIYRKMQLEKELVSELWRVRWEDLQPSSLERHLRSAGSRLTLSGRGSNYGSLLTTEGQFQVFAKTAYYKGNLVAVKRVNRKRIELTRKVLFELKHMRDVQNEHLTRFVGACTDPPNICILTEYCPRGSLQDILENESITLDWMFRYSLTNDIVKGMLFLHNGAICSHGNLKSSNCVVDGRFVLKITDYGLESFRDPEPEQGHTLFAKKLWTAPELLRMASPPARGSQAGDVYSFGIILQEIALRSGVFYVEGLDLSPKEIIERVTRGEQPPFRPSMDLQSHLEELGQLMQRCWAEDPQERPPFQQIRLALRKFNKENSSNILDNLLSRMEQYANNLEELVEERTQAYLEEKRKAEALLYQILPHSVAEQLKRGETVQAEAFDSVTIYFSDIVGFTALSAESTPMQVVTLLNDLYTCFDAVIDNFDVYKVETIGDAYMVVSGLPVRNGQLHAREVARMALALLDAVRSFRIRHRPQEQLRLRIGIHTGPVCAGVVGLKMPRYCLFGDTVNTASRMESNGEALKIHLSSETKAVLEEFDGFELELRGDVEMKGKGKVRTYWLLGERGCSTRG
Protocol: (§1) The experiments were performed as described in Sridharan et al., [Biochem J 469 (2): 255-66 (2015)]. Dulbecco's modified Eagle's medium supplemented with 10% fetal bovine serum, 100 U/ml penicillin and 100 μg/ml streptomycin and 2 mM glutamine was used to grow CHO-K1 cells in a humidified incubator at 37° C. with 5% CO2. The cells were maintained by sub-culturing using 0.5% trypsin every three days. Cells (1×10^5) were seeded per well in 24-well plate and grown for 16 h. Cells in each well were transfected with 0.8 μg of plasmid encoding rat NPR-A using 2 μl of Lipofectamine™ 2000 transfection reagent. Cells were treated with the peptides 24 h after transfection.
NPR-A transfected CHO-K1 cells were treated with varying concentrations of peptides (10 nM to 10 μM dissolved in basal media containing 0.5 mM IBMX) for 30 min. The end-point accumulation of cGMP was measured after cell-lysis with 200 μl of 0.1 N HCl using Enzo life sciences cGMP ELISA kit (manufacturer's protocol).

[3] = target: T1, rat NPR-A; assay: Time-chase study of cGMP accumulation (NPR-A activation kinetics) at EC50 concentration of peptide; assay type: cell-based; details: for Rate of generation of cGMP / time of peak / maximum accumulation of cGMP: EC50 concentration of peptide
Protocol: as §1
Time-chase study was performed by treating the cells with EC50 concentration of the peptides. The reactions were terminated at the indicated time-points (0, 2, 5, 10, 20 and 30 min) by treating the cells with 0.1 N HCl. The cGMP concentration in the cell lysate was measured using cGMP ELISA kit (Enzo life sciences).

[4] = 2.0 nmol/kg/min infusion, listed as DRDAND
[5] = equimolar infusion (2 nmol/kg/min)

| SMILES | Heart rate Peak time ([1]; 0.2 nmol/kg/min infusion) | Mean arterial pressure Peak response ([1]; 0.2 nmol/kg/min infusion) | Mean arterial pressure Peak time ([1]; 0.2 nmol/kg/min infusion) | Pulse pressure Peak time ([1]; 0.2 nmol/kg/min infusion) | Urine flow rate Peak response ([1]; 0.2 nmol/kg/min infusion) | NPR-A activation potency, Ratio compared ANP [2] | fold drop in activity compared to ANP [2] | NPR-A activation potency, Ratio compared wild type NPs [2] | HR Rate of change per unit change in MAP ([1]; 2 nmol/kg/min infusion) | PP Rate of change per unit change in MAP ([1]; 2 nmol/kg/min infusion) | Mean arterial pressure Peak response ([1]; 2.0 nmol/kg/min infusion) | Urine flow rate Peak Time ([1]; 2.0 nmol/kg/min infusion) | Urine flow rate Peak response ([1]; 2.0 nmol/kg/min infusion) | Rate of generation of cGMP, Ratio compared ANP [3] | Rate of generation of cGMP, Ratio compared wild type NPs [3] | times slower activation kinetics compared to the wild type (ANP) [3] | Rate of generation of cGMP [3] | time of peak / maximum accumulation of cGMP [3] | other results |
| --- | --- | --- | --- | --- | --- | --- | --- | --- | --- | --- | --- | --- | --- | --- | --- | --- | --- | --- | --- |
| CC[C@H](C)[C@@H]1NC(=O)[C@H](CCCNC(=N)N)NC(=O)[C@H](CC(=O)O)NC(=O)[C@H](CCSC)NC(=O)[C@H](CCCNC(=N)N)NC(=O)CNC(=O)CNC(=O)[C@H](Cc2ccccc2)NC(=O)[C@@H](NC(=O)[C@H](CO)NC(=O)[C@H](CO)NC(=O)[C@H](CCCNC(=N)N)NC(=O)[C@H](CCCNC(=N)N)NC(=O)[C@H](CC(C)C)NC(=O)[C@@H](N)CO)CSSC[C@@H](C(=O)N[C@@H](CC(N)=O)C(=O)N[C@@H](CO)C(=O)N[C@@H](Cc2ccccc2)C(=O)N[C@@H](CCCNC(=N)N)C(=O)N[C@@H](Cc2ccc(O)cc2)C(=O)O)NC(=O)CNC(=O)[C@H](CC(C)C)NC(=O)CNC(=O)[C@H](CO)NC(=O)[C@H](CCC(N)=O)NC(=O)[C@H](C)NC(=O)CNC1=O [ANP, reference compound] | 30 min | −10.1±0.8 mmHg and −10.1 ± 1.9 mmHg | 30 min | 40 min | 8.8 ± 1.3 µL/min |  |  |  |  |  |  |  |  |  |  |  |  |  | Heart rate Peak response ([1]; 0.08 nmol/kg/min infusion): −7.8 ± 2.4 BPM; Pulse pressure Peak response ([1]; 0.08 nmol/kg/min infusion): −2.1 ± 1.5 mmHg; Urine flow rate Peak Time ([1]; 0.08 nmol/kg/min infusion): 20 min; Urine flow rate Peak response ([1]; 0.08 nmol/kg/min infusion): 5.4 ± 1.4 µL/min; Mean arterial pressure Peak response ([1]; 0.08 nmol/kg/min infusion, anesthetized rats): −1.6 ± 1.5 mmHg; HR Rate of change per unit change in MAP ([1]; 0.2 nmol/kg/min infusion): 5.6; PP Rate of change per unit change in MAP ([1]; 0.2 nmol/kg/min infusion): 0.5; Pulse pressure Peak response ([1]; 0.2 nmol/kg/min infusion): −7.7±3.9 mmHg and −7.7±1.8 mmHg; Urine flow rate Peak Time ([1]; 0.2 nmol/kg/min infusion): 20 min |
| CC[C@H](C)[C@@H]1NC(=O)[C@H](CCCNC(=N)N)NC(=O)[C@H](CC(=O)O)NC(=O)[C@H](CCSC)NC(=O)[C@H](CCCNC(=N)N)NC(=O)CNC(=O)[C@H](CC(=O)O)NC(=O)[C@H](Cc2ccccc2)NC(=O)[C@@H](NC(=O)[C@H](CO)NC(=O)[C@H](CO)NC(=O)[C@H](CCCNC(=N)N)NC(=O)[C@H](CCCNC(=N)N)NC(=O)[C@H](CC(C)C)NC(=O)[C@@H](N)CO)CSSC[C@@H](C(=O)N[C@@H](CC(N)=O)C(=O)N[C@@H](CO)C(=O)N[C@@H](Cc2ccccc2)C(=O)N[C@@H](CCCNC(=N)N)C(=O)N[C@@H](Cc2ccc(O)cc2)C(=O)O)NC(=O)CNC(=O)[C@H](CC(C)C)NC(=O)[C@H](CC(=O)O)NC(=O)[C@H](CO)NC(=O)[C@H](CCC(N)=O)NC(=O)[C@H](C)NC(=O)CNC1=O [^DGDANP] (H-SLRRSSCFDGRMDRIGAQSDLGCNSFRY-OH; disulfide 7-23; N-terminus assumed) |  |  |  |  |  | 7.8 | 8 fold | 7.8 | 4.4 | 0.5 | −4.8±2.3 mmHg and −4.8 ± 2.9 mmHg | 30 min | 7.9 ± 2.1 µL/min and 7.9 ± 2.0 µL/min | 56.9 | 56.9 | 7.8 times | 0.14 pmol cGMP/pmol peptide | 10 min | delay of the peak of diuresis ([1]; 2 nmol/kg/min infusion): 10 min |
| CC[C@H](C)[C@@H]1NC(=O)[C@H](CCCNC(=N)N)NC(=O)[C@H](CC(=O)O)NC(=O)[C@H](CCSC)NC(=O)[C@H](CCCNC(=N)N)NC(=O)[C@H](CCCNC(=N)N)NC(=O)[C@H](CC(=O)O)NC(=O)[C@H](Cc2ccccc2)NC(=O)[C@@H](NC(=O)[C@H](CO)NC(=O)[C@H](CO)NC(=O)[C@H](CCCNC(=N)N)NC(=O)[C@H](CCCNC(=N)N)NC(=O)[C@H](CC(C)C)NC(=O)[C@@H](N)CO)CSSC[C@@H](C(=O)N[C@@H](CC(N)=O)C(=O)N[C@@H](CO)C(=O)N[C@@H](Cc2ccccc2)C(=O)N[C@@H](CCCNC(=N)N)C(=O)N[C@@H](Cc2ccc(O)cc2)C(=O)O)NC(=O)CNC(=O)[C@H](CC(C)C)NC(=O)[C@H](CC(=O)O)NC(=O)[C@H](CO)NC(=O)[C@H](CCC(N)=O)NC(=O)[C@H](C)NC(=O)CNC1=O [^DRDANP] (H-SLRRSSCFDRRMDRIGAQSDLGCNSFRY-OH; disulfide 7-23; N-terminus assumed) | 30 min | −12.9±1.5 mmHg | 30 min | 20 min | <2 µL/min | 2.6 | 3 fold | 2.6 | 4.5 | 0.5 | −18.3±2.3 mmHg | 20 min | 18.7 ± 0.7 µL/min | 21.0 | 21.0 | 2.6 times | 0.38 pmol cGMP/pmol peptide | 10 min | Heart rate Peak response ([1]; 0.2 nmol/kg/min infusion): −37.5±9.5 BPM; diuresis ([1]; 0.2 nmol/kg/min infusion): failed to induce diuresis; Heart rate Peak response ([1]; 2.0 nmol/kg/min infusion): −66.6±14.6 BPM; Heart rate Peak time ([1]; 2.0 nmol/kg/min infusion): 30 min; Mean arterial pressure Peak time ([1]; 2.0 nmol/kg/min infusion): 30 min; Pulse pressure Peak response ([1]; 2.0 nmol/kg/min infusion): −7.9±1.8 mmHg; Pulse pressure Peak time ([1]; 2.0 nmol/kg/min infusion): 20 min; Heart rate Peak response [1, 4]: −66.6 ± 14.5 BPM; Mean arterial pressure Peak response [1, 4]: −18.4 ± 2.4 mmHg; Pulse pressure Peak response [1, 4]: −8.0 ± 1.8 mmHg; Urine flow rate Peak response [1, 4]: 18.8 ± 0.7 µL/min; diuresis compared to K-Ring^NSFRY [1, 5]: 2 fold; influence on HR compared to K-Ring^NSFRY [1, 5]: 2 fold |
